Assay results: ChEMBL document CHEMBL1121597, “Synthesis and some pharmacological properties of [8-L-tryptophan]oxytocin” (1980)
Positions of bridges follow the written chain, without caps; N, C: chain ends. Residues, ends and D or L forms follow the SMILES beside them.

Columns and labels:
[1] = tested on: Rattus norvegicus; assay: Compound was evaluated for the intrauterine pressure assayed by intravenous injection into anesthetized rats pretreated with diethylstilbestrol; format: functional
[2] = tested on: Rattus norvegicus; assay: Compound was evaluated for the vasopressor activity when injected intravenously into anesthetized rats pretreated with phenoxybenzamine; format: functional

SMILES: CC[C@H](C)[C@@H]1NC(=O)[C@H](Cc2ccc(O)cc2)NC(=O)[C@@H](N)CSSC[C@@H](C(=O)N2CCC[C@H]2C(=O)N[C@@H](Cc2c[nH]c3ccccc23)C(=O)NCC(N)=O)NC(=O)[C@H](CC(N)=O)NC(=O)[C@H](CCC(N)=O)NC1=O (H-CYIQNCPWG-NH2; disulfide 1-6)
- Activity [1]: 50 U mg-1
- Activity [2]: <0.25 U mg-1
